According to ChEMBL document CHEMBL1932967, “Synthesis and biological evaluation of novel derivatives of gambogic acid as anti-hepatocellular carcinoma agents” (Bioorg Med Chem Lett, 2012):
Values after ≈ are worked out from the molar mass of the structure shown. Active and inactive are the calls of the source. No cut-off for these calls is given here.

Assays:
Bel-7402 [1] = assay: Cytotoxicity against human Bel7402 cells after 72 hrs by MTT assay; format: functional, cell-based; settings: Bel-7402, 72 h
[2] = Cytotoxicity against human QGY7701 cells after 72 hrs by MTT assay; format: functional, cell-based; settings: QGY7701, 72 h
SMMC-7721 = assay: Cytotoxicity against human SMMC7721 cells after 72 hrs by MTT assay; format: functional, cell-based; settings: SMMC-7721, 72 h
HepG2 = assay: cells; settings: Homo sapiens, HepG2, 72 h
Description: Cytotoxicity against human HepG2 cells after 72 hrs by MTT assay

[3] = Cytotoxicity against human Bel7404 cells after 72 hrs by MTT assay; format: functional, cell-based; settings: BEL-7404, 72 h
[4] = Aqueous solubility of the compound; format: physicochemical; settings: water (aqueous)
Bel-7402 [5] = assay: Ratio of Gambogic acid IC50 to compound IC50 for human Bel7402 cells; format: functional
Bel-7402 [6] = assay: Induction of apoptosis in human Bel7402 cells assessed as pre-necrotic cells at 0.4 uM after 48 hrs using V-FITC and propidium iodide staining by flow cytometry (reference value: 0.7 %); format: functional
Bel-7402 [7] = assay: Induction of apoptosis in human Bel7402 cells assessed as early apoptotic cells at 0.025 uM after 48 hrs using V-FITC and propidium iodide staining by flow cytometry (reference value: 1.4 %); format: functional
Bel-7402 [8] = assay: Induction of apoptosis in human Bel7402 cells after 48 hrs using V-FITC and propidium iodide staining by flow cytometry; format: functional, cell-based
[9] = Cytotoxicity against human HL-7702 cells at 1.235 uM after 72 hrs by MTT assay; format: cell-based; settings: l02, 72 h
Bel-7402 [10] = assay: Induction of apoptosis in human Bel7402 cells assessed as viable cells at 0.1 uM after 48 hrs using V-FITC and propidium iodide staining by flow cytometry (reference value: 95.7 %); format: functional; settings: Bel-7402, 48 h, read-out: Activity
Bel-7402 [11] = assay: Induction of apoptosis in human Bel7402 cells assessed as late apoptotic cells at 0.025 uM after 48 hrs using V-FITC and propidium iodide staining by flow cytometry (reference value: 2.2 %); format: functional
Bel-7402 [12] = assay: Induction of apoptosis in human Bel7402 cells assessed as late apoptotic cells at 0.4 uM after 48 hrs using V-FITC and propidium iodide staining by flow cytometry (reference value: 2.2 %); format: functional
Bel-7402 [13] = assay: Induction of apoptosis in human Bel7402 cells assessed as pre-necrotic cells at 0.025 uM after 48 hrs using V-FITC and propidium iodide staining by flow cytometry (reference value: 0.7 %); format: functional
Bel-7402 [14] = assay: Ratio of Taxol IC50 to compound IC50 for human Bel7402 cells; format: functional
Bel-7402 [15] = assay: Induction of apoptosis in human Bel7402 cells assessed as pre-necrotic cells at 0.1 uM after 48 hrs using V-FITC and propidium iodide staining by flow cytometry (reference value: 0.7 %); format: functional
Bel-7402 [16] = assay: Induction of apoptosis in human Bel7402 cells assessed as early apoptotic cells at 0.1 uM after 48 hrs using V-FITC and propidium iodide staining by flow cytometry (reference value: 1.4 %); format: functional
Bel-7402 [17] = assay: Cytotoxicity against human Bel7402 cells at 1.235 uM after 72 hrs by MTT assay; format: functional, cell-based
Bel-7402 [18] = assay: Induction of apoptosis in human Bel7402 cells assessed as late apoptotic cells at 0.1 uM after 48 hrs using V-FITC and propidium iodide staining by flow cytometry (reference value: 2.2 %); format: functional
Bel-7402 [19] = assay: Induction of apoptosis in human Bel7402 cells assessed as viable cells at 0.025 uM after 48 hrs using V-FITC and propidium iodide staining by flow cytometry (reference value: 95.7 %); format: functional; settings: Bel-7402, 48 h, read-out: Activity
Bel-7402 [20] = assay: Induction of apoptosis in human Bel7402 cells assessed as viable cells at 0.4 uM after 48 hrs using V-FITC and propidium iodide staining by flow cytometry (reference value: 95.7 %); format: functional; settings: Bel-7402, 48 h, read-out: Activity
Bel-7402 [21] = assay: Induction of apoptosis in human Bel7402 cells assessed as early apoptotic cells at 0.4 uM after 48 hrs using V-FITC and propidium iodide staining by flow cytometry (reference value: 1.4 %); format: functional

Row | Structure (SMILES) | IC50 (HepG2) | solubility [4] | IC50 (Bel-7402 [1]) | IC50 [2] | IC50 (SMMC-7721) | IC50 [3] | also measured
1 | CC(C)=CCC[C@]1(C)C=Cc2c(O)c3c(c(CC=C(C)C)c2O1)O[C@]12C(=C[C@@H]4C[C@H]1C(C)(C)O[C@@]2(C/C=C(/C)C(=O)OCCCCN1CCNCC1)C4=O)C3=O | 24100 nM | 1320 µg/mL (≈ 1720 µM) | 16700 nM | 4120 nM | 23500 nM | 28600 nM | 
2 | CC(C)=CCC[C@]1(C)C=Cc2c(O)c3c(c(CC=C(C)C)c2O1)O[C@]12C(=C[C@@H]4C[C@H]1C(C)(C)O[C@@]2(C/C=C(/C)C(=O)OCCN1CCN(CCO)CC1)C4=O)C3=O | 9900 nM | 1260 µg/mL (≈ 1610 µM) | 3360 nM | 1860 nM | 8570 nM | 10200 nM | 
3 | CC(C)=CCC[C@]1(C)C=Cc2c(O)c3c(c(CC=C(C)C)c2O1)O[C@]12C(=C[C@@H]4C[C@H]1C(C)(C)O[C@@]2(C/C=C(/C)C(=O)OCCN1CCNCC1)C4=O)C3=O | 20100 nM | 1360 µg/mL (≈ 1840 µM) | 19700 nM | 5430 nM | 28400 nM | 31100 nM | 
4 | CC(C)=CCC[C@]1(C)C=Cc2c(O)c3c(c(CC=C(C)C)c2O1)O[C@]12C(=C[C@@H]4C[C@H]1C(C)(C)O[C@@]2(C/C=C(/C)C(=O)O)C4=O)C3=O [GAMBOGIC ACID] | 1170 nM | 13 µg/mL (≈ 20.7 µM) | 750 nM | 240 nM | 1130 nM | 4700 nM | 
5 | CC(C)=CCC[C@]1(C)C=Cc2c(O)c3c(c(CC=C(C)C)c2O1)O[C@]12C(=C[C@@H]4C[C@H]1C(C)(C)O[C@@]2(C/C=C(/C)C(=O)OCCN1CCOCC1)C4=O)C3=O | 940 nM | 1230 µg/mL (≈ 1660 µM) | 590 nM | 410 nM | 1590 nM | 1990 nM | 
6 | CC(C)=CCC[C@]1(C)C=Cc2c(O)c3c(c(CC=C(C)C)c2O1)O[C@]12C(=C[C@@H]4C[C@H]1C(C)(C)O[C@@]2(C/C=C(/C)C(=O)OCCCN1CCNCC1)C4=O)C3=O | 19100 nM | 1350 µg/mL (≈ 1790 µM) | 18100 nM | 4380 nM | 26200 nM | 27600 nM | 
7 | CC(C)=CCC[C@]1(C)C=Cc2c(O)c3c(c(CC=C(C)C)c2O1)O[C@]12C(=C[C@@H]4C[C@H]1C(C)(C)O[C@@]2(C/C=C(/C)C(=O)OCCCCN1CCCCC1)C4=O)C3=O | 5590 nM | 780 µg/mL (≈ 1020 µM) | 3140 nM | 4360 nM | 4530 nM | 6460 nM | 
8 | CC(C)=CCC[C@]1(C)C=Cc2c(O)c3c(c(CC=C(C)C)c2O1)O[C@]12C(=C[C@@H]4C[C@H]1C(C)(C)O[C@@]2(C/C=C(/C)C(=O)OCCCN1CCN(CCO)CC1)C4=O)C3=O | 3250 nM | 1230 µg/mL (≈ 1540 µM) | 3120 nM | 960 nM | 6610 nM | 8080 nM | 

Further molecules by falling IC50 (HepG2), results first:

Row | IC50 (HepG2) | solubility [4] | Structure (SMILES) | IC50 (Bel-7402 [1]) | IC50 [2] | IC50 (SMMC-7721) | IC50 [3] | also measured
9 | 3180 nM | 870 µg/mL (≈ 1180 µM) | CC(C)=CCC[C@]1(C)C=Cc2c(O)c3c(c(CC=C(C)C)c2O1)O[C@]12C(=C[C@@H]4C[C@H]1C(C)(C)O[C@@]2(C/C=C(/C)C(=O)OCCN1CCCCC1)C4=O)C3=O | 1720 nM | 700 nM | 6520 nM | 7230 nM | 
10 | 1510 nM | 1170 µg/mL (≈ 1520 µM) | CC(C)=CCC[C@]1(C)C=Cc2c(O)c3c(c(CC=C(C)C)c2O1)O[C@]12C(=C[C@@H]4C[C@H]1C(C)(C)O[C@@]2(C/C=C(/C)C(=O)OCCCCN1CCOCC1)C4=O)C3=O | 2130 nM | 530 nM | 1540 nM | 2110 nM | 
11 | 1160 nM | 1210 µg/mL (≈ 1490 µM) | CC(C)=CCC[C@]1(C)C=Cc2c(O)c3c(c(CC=C(C)C)c2O1)O[C@]12C(=C[C@@H]4C[C@H]1C(C)(C)O[C@@]2(C/C=C(/C)C(=O)OCCCCN1CCN(CCO)CC1)C4=O)C3=O | 1100 nM | 2560 nM | 3520 nM | 9650 nM | 
12 | 150 nM | 840 µg/mL (≈ 1110 µM) | CC(C)=CCC[C@]1(C)C=Cc2c(O)c3c(c(CC=C(C)C)c2O1)O[C@]12C(=C[C@@H]4C[C@H]1C(C)(C)O[C@@]2(C/C=C(/C)C(=O)OCCCN1CCCCC1)C4=O)C3=O | 86 nM | 430 nM | 1060 nM | 1420 nM | Ratio IC50 (Bel-7402 [5]): 8.7; Ratio IC50 (Bel-7402 [14]): 14.5
13 | 67 nM | 1210 µg/mL (≈ 1600 µM) | CC(C)=CCC[C@]1(C)C=Cc2c(O)c3c(c(CC=C(C)C)c2O1)O[C@]12C(=C[C@@H]4C[C@H]1C(C)(C)O[C@@]2(C/C=C(/C)C(=O)OCCCN1CCOCC1)C4=O)C3=O | 45 nM | 120 nM | 730 nM | 1250 nM | Ratio IC50 (Bel-7402 [5]): 16.7; Activity (Bel-7402 [6]): 0.5%; Activity (Bel-7402 [7]): 3%; Activity (Bel-7402 [8]): Dose-dependent effect; Activity [9]: Toxic; viability at 0.1 µM (Bel-7402 [10]): 72.2%; Activity (Bel-7402 [11]): 7.8%; Activity (Bel-7402 [12]): 5%; Activity (Bel-7402 [13]): 1.4%; Ratio IC50 (Bel-7402 [14]): 27.8; Activity (Bel-7402 [15]): 0.4%; Activity (Bel-7402 [16]): 22.8%; Activity (Bel-7402 [17]): Active; Activity (Bel-7402 [18]): 4.6%; viability at 0.025 µM (Bel-7402 [19]): 87.8%; viability at 0.4 µM (Bel-7402 [20]): 49.6%; Activity (Bel-7402 [21]): 44.9%
14 | 50 nM |  | CC(=O)O[C@H]1C(=O)[C@@]2(C)[C@H]([C@H](OC(=O)c3ccccc3)[C@]3(O)C[C@H](OC(=O)[C@H](O)[C@@H](NC(=O)c4ccccc4)c4ccccc4)C(C)=C1C3(C)C)[C@]1(OC(C)=O)CO[C@@H]1C[C@@H]2O [PACLITAXEL] | 1250 nM | 40 nM | 880 nM | 820 nM | 
